Source: PubChem BioAssay AID2060500 (Molecular Pharmacology Branch, DTP, NCI, 2025)

Test system: 596521-263-R-J1-PDC complex spheroids, viability % of control
Experiment: Anticancer human tumor 596521-263-R-J1-PDC patient-derived soft tissue sarcoma cell line growth inhibition [GQUAD]
Conditions: for IC50: curve of first compound; for viability, T/C: stronger effect = lower value
In short: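 Tumor cells were grown as complex spheroids with HUVEC endothelial cells and mesenchymal stem cells as stroma. G-quadruplex stabilizers were combined with targeted agents over half-log dilutions from near the clinical Cmax, or from 10 microM.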

[1] = second compound 0.0316 µM, first compound 0.000999 µM
[2] = second compound 0.0316 µM, first compound 0.00316 µM
[3] = second compound 0.0316 µM, first compound 0.00999 µM
[4] = second compound 0.0316 µM, first compound 0.0316 µM
[5] = second compound 0.0316 µM, first compound 0.0999 µM
[6] = second compound 0.0316 µM, first compound 0.316 µM
[7] = second compound 0.1 µM, first compound 0.000999 µM
[8] = second compound 0.1 µM, first compound 0.00316 µM
[9] = second compound 0.1 µM, first compound 0.00999 µM
[10] = second compound 0.1 µM, first compound 0.0316 µM
[11] = second compound 0.1 µM, first compound 0.0999 µM
[12] = second compound 0.1 µM, first compound 0.316 µM
[13] = second compound 0.316 µM, first compound 0.000999 µM
[14] = second compound 0.316 µM, first compound 0.00316 µM
[15] = second compound 0.316 µM, first compound 0.00999 µM
[16] = second compound 0.316 µM, first compound 0.0316 µM
[17] = second compound 0.316 µM, first compound 0.0999 µM
[18] = second compound 0.316 µM, first compound 0.316 µM
[19] = second compound 1 µM, first compound 0.000999 µM
[20] = second compound 1 µM, first compound 0.00316 µM
[21] = second compound 1 µM, first compound 0.00999 µM
[22] = second compound 1 µM, first compound 0.0316 µM
[23] = second compound 1 µM, first compound 0.0999 µM
[24] = second compound 1 µM, first compound 0.316 µM
[25] = second compound 3.16 µM, first compound 0.000999 µM
[26] = second compound 3.16 µM, first compound 0.00316 µM
[27] = second compound 3.16 µM, first compound 0.00999 µM
[28] = second compound 3.16 µM, first compound 0.0316 µM
[29] = second compound 3.16 µM, first compound 0.0999 µM
[30] = second compound 3.16 µM, first compound 0.316 µM
[31] = second compound 10 µM, first compound 0.000999 µM
[32] = second compound 10 µM, first compound 0.00316 µM
[33] = second compound 10 µM, first compound 0.00999 µM
[34] = second compound 10 µM, first compound 0.0316 µM
[35] = second compound 10 µM, first compound 0.0999 µM
[36] = second compound 10 µM, first compound 0.316 µM
[37] = second compound 0.0316 µM, first compound 0.1 µM
[38] = second compound 0.0316 µM, first compound 1 µM
[39] = second compound 0.0316 µM, first compound 3.16 µM
[40] = second compound 0.0316 µM, first compound 10 µM
[41] = second compound 0.1 µM, first compound 0.1 µM
[42] = second compound 0.1 µM, first compound 1 µM
[43] = second compound 0.1 µM, first compound 3.16 µM
[44] = second compound 0.1 µM, first compound 10 µM
[45] = second compound 0.316 µM, first compound 0.1 µM
[46] = second compound 0.316 µM, first compound 1 µM
[47] = second compound 0.316 µM, first compound 3.16 µM
[48] = second compound 0.316 µM, first compound 10 µM
[49] = second compound 1 µM, first compound 0.1 µM
[50] = second compound 1 µM, first compound 1 µM
[51] = second compound 1 µM, first compound 3.16 µM
[52] = second compound 1 µM, first compound 10 µM
[53] = second compound 3.16 µM, first compound 0.1 µM
[54] = second compound 3.16 µM, first compound 1 µM
[55] = second compound 3.16 µM, first compound 3.16 µM
[56] = second compound 3.16 µM, first compound 10 µM
[57] = second compound 10 µM, first compound 0.1 µM
[58] = second compound 10 µM, first compound 1 µM
[59] = second compound 10 µM, first compound 3.16 µM
[60] = second compound 10 µM, first compound 10 µM
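Further: spheroids exposed to drugs for 7 days before viability reading.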
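Wherever viability, T/C is given: 100% = DMSO vehicle control viability.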

`CCc1c2c(nc3ccc(O)cc13)-c1cc3c(c(=O)n1C2)COC(=O)[C@]3(O)CC` + Cc1[nH]c2ccc(F)cc2c1-c1nc2c3cccnc3c3ncccc3c2[nH]1 showed an IC50 (second compound 0.0316 µM) of 6.02 nM, an IC50 (second compound 0.1 µM) of 7.91 nM and an IC50 (second compound 0.316 µM) of 5.32 nM. It also gave an IC50 (second compound 1 µM) of 8.42 nM, an IC50 (second compound 3.16 µM) of 4.26 nM and an IC50 (second compound 10 µM) of 8.37 nM. It also gave a viability, T/C [1] of 65.8%, a viability, T/C [2] of 54.8% and a viability, T/C [3] of 45.7%. The viability, T/C [4] was 34.3%, the viability, T/C [5] was 19.2% and the viability, T/C [6] was 9.24%. The viability, T/C [7] was 57.3%, the viability, T/C [8] was 61.5% and the viability, T/C [9] was 47.4%. The viability, T/C [10] was 31.1%, the viability, T/C [11] was 21.5% and the viability, T/C [12] was 7.09%. It also gave a viability, T/C [13] of 71.4%, a viability, T/C [14] of 54.4% and a viability, T/C [15] of 44%. For the same compound, the viability, T/C [16] was 30.1%, the viability, T/C [17] was 16.1% and the viability, T/C [18] was 9.37%. For the same compound, the viability, T/C [19] was 67%, the viability, T/C [20] was 58.4% and the viability, T/C [21] was 50.3%. For the same compound, the viability, T/C [22] was 29.6%, the viability, T/C [23] was 17.5% and the viability, T/C [24] was 7.61%. For the same compound, the viability, T/C [25] was 61.8%, the viability, T/C [26] was 52.3% and the viability, T/C [27] was 42.1%. For the same compound, the viability, T/C [28] was 31.3%, the viability, T/C [29] was 18.8% and the viability, T/C [30] was 8.52%. The viability, T/C [31] was 56.8%, the viability, T/C [32] was 59.2% and the viability, T/C [33] was 48.6%. For the same compound, the viability, T/C [34] was 29.9%, the viability, T/C [35] was 17% and the viability, T/C [36] was 8.36%.

With `COc1cc(C2c3cc4c(cc3C(OC3OC5COC(C)OC5C(O)C3O)C3COC(=O)C23)OCO4)cc(OC)c1O` (stereo not drawn) + Cc1[nH]c2ccc(F)cc2c1-c1nc2c3cccnc3c3ncccc3c2[nH]1 the IC50 (second compound 0.0316 µM) was 5370 nM, the IC50 (second compound 0.1 µM) was > 10000 nM and the IC50 (second compound 0.316 µM) was > 10000 nM. For the same compound, the IC50 (second compound 1 µM) was 5420 nM, the IC50 (second compound 3.16 µM) was 8310 nM and the IC50 (second compound 10 µM) was 970 nM. The viability, T/C [4] was 107%, the viability, T/C [37] was 78.9% and the viability, T/C [6] was 78.4%. It also gave a viability, T/C [38] of 66.8%, a viability, T/C [39] of 51.6% and a viability, T/C [40] of 45.8%. It also gave a viability, T/C [10] of 93%, a viability, T/C [41] of 86.8% and a viability, T/C [12] of 79.3%. For the same compound, the viability, T/C [42] was 66.3%, the viability, T/C [43] was 58.3% and the viability, T/C [44] was 53.3%. The viability, T/C [16] was 93.4%, the viability, T/C [45] was 104% and the viability, T/C [18] was 87.3%. For the same compound, the viability, T/C [46] was 54.1%, the viability, T/C [47] was 57.9% and the viability, T/C [48] was 50.3%. For the same compound, the viability, T/C [22] was 102%, the viability, T/C [49] was 85.2% and the viability, T/C [24] was 79.5%. The viability, T/C [50] was 60.9%, the viability, T/C [51] was 55.7% and the viability, T/C [52] was 44.8%. It also gave a viability, T/C [28] of 92.8%, a viability, T/C [53] of 82% and a viability, T/C [30] of 79.3%. The viability, T/C [54] was 60.3%, the viability, T/C [55] was 63.6% and the viability, T/C [56] was 46.4%. The viability, T/C [34] was 67.4%, the viability, T/C [57] was 64.3% and the viability, T/C [36] was 65%. The viability, T/C [58] was 49.2%, the viability, T/C [59] was 43.9% and the viability, T/C [60] was 39.5%.

With `Cn1ncnc1[C@H]1c2n[nH]c(=O)c3cc(F)cc(c23)N[C@@H]1c1ccc(F)cc1` + Cc1[nH]c2ccc(F)cc2c1-c1nc2c3cccnc3c3ncccc3c2[nH]1 the IC50 (second compound 0.0316 µM) was > 316 nM, the IC50 (second compound 0.1 µM) was > 316 nM and the IC50 (second compound 0.316 µM) was > 316 nM. For the same compound, the IC50 (second compound 1 µM) was > 316 nM, the IC50 (second compound 3.16 µM) was > 316 nM and the IC50 (second compound 10 µM) was > 316 nM. For the same compound, the viability, T/C [1] was 89.4%, the viability, T/C [2] was 93.6% and the viability, T/C [3] was 90.2%. It also gave a viability, T/C [4] of 86.6%, a viability, T/C [5] of 95.2% and a viability, T/C [6] of 94.7%. For the same compound, the viability, T/C [7] was 101%, the viability, T/C [8] was 98.9% and the viability, T/C [9] was 96.7%. The viability, T/C [10] was 110%, the viability, T/C [11] was 94.1% and the viability, T/C [12] was 78.1%. It also gave a viability, T/C [13] of 95.2%, a viability, T/C [14] of 94.2% and a viability, T/C [15] of 97.9%. The viability, T/C [16] was 89.5%, the viability, T/C [17] was 80.4% and the viability, T/C [18] was 78.4%. For the same compound, the viability, T/C [19] was 94.8%, the viability, T/C [20] was 90.9% and the viability, T/C [21] was 88.6%. The viability, T/C [22] was 83.5%, the viability, T/C [23] was 85.9% and the viability, T/C [24] was 79.5%. The viability, T/C [25] was 89.3%, the viability, T/C [26] was 84.5% and the viability, T/C [27] was 84.7%. For the same compound, the viability, T/C [28] was 77.7%, the viability, T/C [29] was 81.8% and the viability, T/C [30] was 72.6%. For the same compound, the viability, T/C [31] was 73.8%, the viability, T/C [32] was 85.6% and the viability, T/C [33] was 86.4%. For the same compound, the viability, T/C [34] was 76.5%, the viability, T/C [35] was 72.5% and the viability, T/C [36] was 74.3%.

With `O=C(c1cc(Cc2n[nH]c(=O)c3ccccc23)ccc1F)N1CCN(C(=O)C2CC2)CC1` + Cc1[nH]c2ccc(F)cc2c1-c1nc2c3cccnc3c3ncccc3c2[nH]1 the IC50 (second compound 0.0316 µM) was > 10000 nM, the IC50 (second compound 0.1 µM) was > 10000 nM and the IC50 (second compound 0.316 µM) was > 10000 nM. For the same compound, the IC50 (second compound 1 µM) was > 10000 nM, the IC50 (second compound 3.16 µM) was > 10000 nM and the IC50 (second compound 10 µM) was > 10000 nM. For the same compound, the viability, T/C [4] was 97.8%, the viability, T/C [37] was 97.8% and the viability, T/C [6] was 98.6%. The viability, T/C [38] was 85.8%, the viability, T/C [39] was 89.8% and the viability, T/C [40] was 69.8%. For the same compound, the viability, T/C [10] was 91.6%, the viability, T/C [41] was 83.3% and the viability, T/C [12] was 88.3%. For the same compound, the viability, T/C [42] was 94.7%, the viability, T/C [43] was 76.8% and the viability, T/C [44] was 66.2%. The viability, T/C [16] was 95%, the viability, T/C [45] was 105% and the viability, T/C [18] was 91.8%. For the same compound, the viability, T/C [46] was 104%, the viability, T/C [47] was 78.5% and the viability, T/C [48] was 66.3%. For the same compound, the viability, T/C [22] was 104%, the viability, T/C [49] was 87.9% and the viability, T/C [24] was 94.7%. It also gave a viability, T/C [50] of 85.2%, a viability, T/C [51] of 91.4% and a viability, T/C [52] of 65.5%. The viability, T/C [28] was 94%, the viability, T/C [53] was 83.3% and the viability, T/C [30] was 88.4%. It also gave a viability, T/C [54] of 80.8%, a viability, T/C [55] of 75.4% and a viability, T/C [56] of 57.2%. For the same compound, the viability, T/C [34] was 77.4%, the viability, T/C [57] was 73.7% and the viability, T/C [36] was 75.8%. The viability, T/C [58] was 66.2%, the viability, T/C [59] was 72.6% and the viability, T/C [60] was 58.5%.
